Measured values as given in PubChem BioAssay (NCI).
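Five compound concentrations were applied to cells in 96-well plates for 48 hours; endpoints were derived by simple linear interpolation of the resulting dose-response curve. GI50 = concentration required for 50% inhibition of growth. TGI: concentration producing complete growth inhibition.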

What was measured:
Test in all cases: NCI-60 cell line screen, 48 h
[1] = test system: MDA-MB-468 breast
[2] = test system: ACHN renal
[3] = test system: T-47D breast
[4] = test system: A549 NSCLC
[5] = test system: IGROV1 ovarian
[6] = test system: SNB-75 CNS
[7] = test system: NCI-H226 lung
[8] = test system: OVCAR-5 ovarian
[9] = test system: RPMI-8226 leukemia
[10] = test system: U251 CNS
[11] = test system: NCI-H23 lung
[12] = test system: NCI-H522 lung
[13] = test system: HT29 colon
[14] = test system: RXF 393 renal
[15] = test system: HCT-116 colon
[16] = test system: M14 melanoma
[17] = test system: MALME-3M melanoma
[18] = test system: HOP-92 NSCLC
[19] = test system: SNB-19 CNS
[20] = test system: NCI-H460 lung
[21] = test system: HCC-2998 colon
[22] = test system: BT-549 breast
[23] = test system: SK-OV-3 ovarian
[24] = test system: SF-295 CNS
[25] = test system: COLO 205 colon
[26] = test system: TK-10 renal
[27] = test system: OVCAR-4 ovarian
[28] = test system: DU-145 prostate
[29] = test system: OVCAR-8 ovarian
[30] = test system: MDA-MB-231 breast
[31] = test system: SK-MEL-2 melanoma
[32] = test system: MCF7 breast
[33] = test system: SN12C renal
[34] = test system: LOX IMVI melanoma
[35] = test system: HCT-15 colon
[36] = test system: A498 renal
[37] = test system: SF-268 CNS
[38] = test system: HOP-62 NSCLC
[39] = test system: KM12 colon
[40] = test system: SF-539 CNS
[41] = test system: HS 578T breast
[42] = test system: UACC-62 melanoma
[43] = test system: 786-0 renal
[44] = test system: CAKI-1 renal
[45] = test system: PC-3 prostate

Question: How did the GI50 [1] turn out when `CN1CCC(n2cnc(-c3ccc(F)cc3)c2-c2ccnc(N)n2)CC1` was run?
Answer: 3.32 µM

Question: What about the TGI [1] of the same compound?
Answer: 21.1 µM

Question: `O=C(Nc1cccc(Nc2ncc(Br)c(NCCc3cnc[nH]3)n2)c1)N1CCCC1` was tested. Which GI50 [1] did it give?
Answer: 0.637 µM

Question: And the TGI [1]?
Answer: 9.09 µM

Question: Which GI50 [1] does the source give for `COc1cc2c(c(OC)c1OC)-c1ccc(SC)c(=O)cc1[C@@H](NC1OC(CO)C(O)C(O)C1O)CC2` (some centres undefined) here?
Answer: 0.0343 µM

Question: And the TGI [1]?
Answer: > 100 µM

Question: How did the GI50 [1] turn out when `COc1cc(/C=C/[N+](=O)[O-])cc(Br)c1OC` was run?
Answer: 1.59 µM

Question: And the TGI [1]?
Answer: 3.28 µM

Question: With `O=C1NC(=O)C(c2cccc(Cl)c2)=C1Nc1ccc(O)c(Cl)c1` as the compound, how does the GI50 [1] read?
Answer: 5.94 µM

Question: And the TGI [1]?
Answer: > 20.3 µM

Question: For `COc1ccc(-c2oc3cc(O)cc(O)c3c(=O)c2OC)cc1O`, which GI50 [1] is on record?
Answer: 0.565 µM

Question: What about the TGI [1] of the same compound?
Answer: 3.45 µM

Question: For `CCN(CCO)CC(C)Nc1ccc([N+](=O)[O-])c2sc3ccccc3c(=O)c12` (centres undefined), which GI50 [1] is on record?
Answer: 1.68 µM

Question: What about the TGI [1] of the same compound?
Answer: 7.29 µM

Question: Which results are given for `CCN(Cc1ccc(Cl)s1)c1ccc(CO)c(Cl)c1`?
Answer: GI50 [1]: 0.0193 µM; TGI [1]: 0.0526 µM

Question: How did the GI50 [1] turn out when `CC(C)=CCC/C(C)=C/CC/C(C)=C/CC/C=C(\C)CC/C=C(\C)CCC(=O)Nc1ccn(C2OC(CO)C(O)C2(F)F)c(=O)n1` (centres undefined) was run?
Answer: 0.185 µM

Question: What about the TGI [1] of the same compound?
Answer: 35.8 µM

Question: For `C[C@@H]1O[C@@H](O[C@H]2CC[C@@]3(C)[C@H](CCC4[C@@H]3C(O)C[C@]3(C)[C@@H](c5ccc(=O)oc5)CC[C@]43O)C2)[C@H](O)[C@H](O)[C@H]1O` (some centres undefined), which GI50 [1] is on record?
Answer: 0.00594 µM

Question: And the TGI [1]?
Answer: 0.0121 µM

Question: Which GI50 [1] does the source give for `CC1(C)N=C(N)N=C(N)N1c1ccc(CCCCc2ccc(S(=O)(=O)F)cc2)c(Cl)c1` here?
Answer: 0.281 µM

Question: And the TGI [1]?
Answer: 10.8 µM

Question: `O=[N+]([O-])c1cc(S(=O)(=O)Oc2ccccc2)ccc1Cl` was tested. Which GI50 [1] did it give?
Answer: 1.83 µM

Question: What about the TGI [1] of the same compound?
Answer: 3.64 µM

Question: `COc1cc(/C=C/C(=O)c2nnn(-c3ccc(Cl)cc3)c2C)cc(OC)c1OC` was tested. Which GI50 [2] did it give?
Answer: 5.82 µM

Question: And the TGI [2]?
Answer: > 100 µM

Question: And the GI50 [3]?
Answer: > 100 µM

Question: And the TGI [3]?
Answer: > 100 µM

Question: And the GI50 [4]?
Answer: 6.11 µM

Question: And the TGI [4]?
Answer: > 100 µM

Question: And the GI50 [5]?
Answer: > 100 µM

Question: And the TGI [5]?
Answer: > 100 µM

Question: What about the GI50 [6] of the same compound?
Answer: 2.83 µM

Question: And the TGI [6]?
Answer: > 100 µM

Question: What about the GI50 [7] of the same compound?
Answer: 7.53 µM

Question: And the TGI [7]?
Answer: > 100 µM

Question: And the GI50 [8]?
Answer: > 100 µM

Question: What about the TGI [8] of the same compound?
Answer: > 100 µM

Question: And the GI50 [9]?
Answer: 2.22 µM

Question: What about the TGI [9] of the same compound?
Answer: > 100 µM

Question: What about the GI50 [10] of the same compound?
Answer: 4.1 µM

Question: What about the TGI [10] of the same compound?
Answer: > 100 µM

Question: And the GI50 [11]?
Answer: 6.2 µM

Question: And the TGI [11]?
Answer: > 100 µM

Question: And the GI50 [12]?
Answer: 4.06 µM

Question: What about the TGI [12] of the same compound?
Answer: > 100 µM

Question: And the GI50 [13]?
Answer: 4.1 µM

Question: What about the TGI [13] of the same compound?
Answer: > 100 µM

Question: What about the GI50 [14] of the same compound?
Answer: 6.39 µM

Question: What about the TGI [14] of the same compound?
Answer: > 100 µM

Question: What about the GI50 [15] of the same compound?
Answer: 3.55 µM

Question: And the TGI [15]?
Answer: > 100 µM

Question: And the GI50 [16]?
Answer: 3.59 µM

Question: What about the TGI [16] of the same compound?
Answer: > 100 µM

Question: And the GI50 [17]?
Answer: 7.35 µM

Question: And the TGI [17]?
Answer: > 100 µM

Question: What about the GI50 [18] of the same compound?
Answer: 2.55 µM

Question: And the TGI [18]?
Answer: 23.6 µM

Question: And the GI50 [19]?
Answer: 14.7 µM

Question: What about the TGI [19] of the same compound?
Answer: > 100 µM

Question: And the GI50 [20]?
Answer: 3.59 µM

Question: And the TGI [20]?
Answer: > 100 µM

Question: What about the GI50 [21] of the same compound?
Answer: > 100 µM

Question: And the TGI [21]?
Answer: > 100 µM

Question: And the GI50 [22]?
Answer: 4.23 µM

Question: And the TGI [22]?
Answer: 84.3 µM

Question: And the GI50 [23]?
Answer: > 100 µM

Question: What about the TGI [23] of the same compound?
Answer: > 100 µM

Question: What about the GI50 [24] of the same compound?
Answer: 41.4 µM

Question: What about the TGI [24] of the same compound?
Answer: > 100 µM

Question: What about the GI50 [25] of the same compound?
Answer: > 100 µM

Question: And the TGI [25]?
Answer: > 100 µM

Question: What about the GI50 [26] of the same compound?
Answer: > 100 µM

Question: What about the TGI [26] of the same compound?
Answer: > 100 µM

Question: And the GI50 [27]?
Answer: 4.25 µM

Question: What about the TGI [27] of the same compound?
Answer: > 100 µM

Question: And the GI50 [28]?
Answer: 3.62 µM

Question: And the TGI [28]?
Answer: > 100 µM

Question: And the GI50 [29]?
Answer: 4.15 µM

Question: And the TGI [29]?
Answer: > 100 µM

Question: What about the GI50 [30] of the same compound?
Answer: 3.48 µM

Question: And the TGI [30]?
Answer: > 100 µM

Question: What about the GI50 [31] of the same compound?
Answer: > 100 µM

Question: And the TGI [31]?
Answer: > 100 µM

Question: And the GI50 [32]?
Answer: 3.23 µM

Question: What about the TGI [32] of the same compound?
Answer: > 100 µM

Question: And the GI50 [33]?
Answer: 4.15 µM

Question: What about the TGI [33] of the same compound?
Answer: > 100 µM

Question: And the GI50 [34]?
Answer: 3.06 µM

Question: What about the TGI [34] of the same compound?
Answer: > 100 µM

Question: And the GI50 [35]?
Answer: 3.23 µM

Question: And the TGI [35]?
Answer: > 100 µM

Question: And the GI50 [36]?
Answer: > 100 µM

Question: And the TGI [36]?
Answer: > 100 µM

Question: What about the GI50 [37] of the same compound?
Answer: 20.9 µM

Question: What about the TGI [37] of the same compound?
Answer: > 100 µM

Question: What about the GI50 [38] of the same compound?
Answer: 11 µM

Question: What about the TGI [38] of the same compound?
Answer: > 100 µM

Question: What about the GI50 [39] of the same compound?
Answer: 8.53 µM

Question: What about the TGI [39] of the same compound?
Answer: > 100 µM

Question: And the GI50 [40]?
Answer: > 100 µM

Question: And the TGI [40]?
Answer: > 100 µM

Question: And the GI50 [1]?
Answer: 3.38 µM

Question: And the TGI [1]?
Answer: > 100 µM

Question: And the GI50 [41]?
Answer: 5.47 µM

Question: And the TGI [41]?
Answer: > 100 µM

Question: And the GI50 [42]?
Answer: 5.59 µM

Question: And the TGI [42]?
Answer: > 100 µM

Question: And the GI50 [43]?
Answer: 8.67 µM

Question: What about the TGI [43] of the same compound?
Answer: 62 µM

Question: What about the GI50 [44] of the same compound?
Answer: 4.46 µM

Question: And the TGI [44]?
Answer: > 100 µM

Question: And the GI50 [45]?
Answer: 3.53 µM

Question: What about the TGI [45] of the same compound?
Answer: > 100 µM
